Source: publication PMC8286840, “Identifying SARS-CoV-2 antiviral compounds by screening for small molecule inhibitors of Nsp3 papain-like protease” (Biochemical Journal, 2021)
Counter-ions that a name gives are not always drawn. Like-named read-outs stand apart in the source and are kept apart here.

Columns and labels:
[1] = target: T1, SARS-CoV-2 PLpro (nsp3 1564–1878) (Severe acute respiratory syndrome coronavirus 2, UniProt P0DTD1); assay: biochemical; set-up: FRET-quenched peptide (Pro3) cleavage by PLpro, 10 min pre-incubation, slope over 20 min, normalised to no-compound control; conditions: low concentration screen, read-out: % of control remaining
[2] = target: T1, SARS-CoV-2 PLpro (nsp3 1564–1878); assay: biochemical; set-up: FRET-quenched peptide (Pro3) cleavage by PLpro, 10 min pre-incubation, slope over 20 min, normalised to no-compound control; conditions: high concentration screen, read-out: % of control remaining

Work on N=C(N)NS(=O)(=O)c1ccc(N)cc1 [Sulfaguanidine] yielded a remaining activity at 1.25 µM ([1]; Well no.=7348) of 93.5% and a remaining activity at 3.75 µM ([2]; Well no.=7348) of 93.1%.
With CCOC(=O)c1c(CSc2ccccc2)n(C)c2cc(Br)c(O)c(CN(C)C)c12 [Arbidol HCl] the remaining activity at 1.25 µM ([1]; Well no.=5098) was 104% and the remaining activity at 3.75 µM ([2]; Well no.=5098) was 107%.
With CN1[C@@H]2CC[C@H]1C[C@@H](OC(=O)C(CO)c1ccccc1)C2 (stereo partly shown) [Atropine sulfate] the remaining activity at 1.25 µM ([1]; Well no.=197) was 99.5%, the remaining activity at 1.25 µM ([1]; Well no.=3238) was 102% and the remaining activity at 3.75 µM ([2]; Well no.=3238) was 102%.
CC1(NC2=NS(=O)(=O)c3sc(Cl)cc3N2)CC1 [NN414] showed a remaining activity at 1.25 µM ([1]; Well no.=5436) of 103% and a remaining activity at 3.75 µM ([2]; Well no.=5436) of 104%.
CCOc1ccccc1O[C@H](c1ccccc1)[C@H]1CNCCO1 (racemic) [Reboxetine mesylate] was tested, and the remaining activity at 1.25 µM ([1]; Well no.=4989) was 94.7% and the remaining activity at 3.75 µM ([2]; Well no.=4989) was 91.1%.
For COc1cc2ncnc(-n3nc(-c4ccccn4)nc3N)c2cc1OC [CP-466722], the remaining activity at 1.25 µM ([1]; Well no.=5158) was 103% and the remaining activity at 3.75 µM ([2]; Well no.=5158) was 101%.
NC[C@@H]1O[C@H](O[C@H]2[C@@H](O)[C@H](O[C@@H]3[C@@H](O)[C@H](N)C[C@H](N)[C@H]3O[C@H]3O[C@H](CN)[C@@H](O)[C@H](O)[C@H]3N)O[C@@H]2CO)[C@H](N)[C@@H](O)[C@@H]1O [Neomycin] gave a remaining activity at 1.25 µM ([1]; Well no.=1911) of 94.3%, a remaining activity at 1.25 µM ([1]; Well no.=3419) of 87.7% and a remaining activity at 3.75 µM ([2]; Well no.=1911) of 94.6%. It also gave a remaining activity at 3.75 µM ([2]; Well no.=3419) of 90%.
Compound O=C(O)P(=O)(O)O [Foscarnet Sodium] has a remaining activity at 1.25 µM ([1]; Well no.=5321) of 101% and a remaining activity at 3.75 µM ([2]; Well no.=5321) of 95.6%.
In the case of NC(=O)CC[C@@H](N)C(=O)O [D-glutamine], the remaining activity at 1.25 µM ([1]; Well no.=4996) is reported as 98.2% and the remaining activity at 3.75 µM ([2]; Well no.=4996) is reported as 99.6%.
CC[C@]1(O)C[C@H]2CN(CCc3c([nH]c4ccccc34)[C@@](C(=O)OC)(c3cc4c(cc3OC)N(C=O)[C@H]3[C@@](O)(C(=O)OC)[C@H](OC(C)=O)[C@]5(CC)C=CCN6CC[C@]43[C@@H]65)C2)C1 [Vincristine sulfate] was tested, and the remaining activity at 1.25 µM ([1]; Well no.=1194) was 97.3%, the remaining activity at 1.25 µM ([1]; Well no.=2035) was 104% and the remaining activity at 1.25 µM ([1]; Well no.=3226) was 102%. For the same compound, the remaining activity at 3.75 µM ([2]; Well no.=1194) was 97.6% and the remaining activity at 3.75 µM ([2]; Well no.=3226) was 105%.
O=c1c(O)c(-c2ccc(O)c(O)c2)oc2cc(O)cc(O)c12 [Quercetin dihydrate] was tested, and the remaining activity at 1.25 µM ([1]; Well no.=1315) was 102% and the remaining activity at 3.75 µM ([2]; Well no.=1315) was 104%.
Work on CCOC(=O)[C@H](CCc1ccccc1)N[C@@H](C)C(=O)N1Cc2ccccc2C[C@H]1C(=O)O [Quinapril] yielded a remaining activity at 1.25 µM ([1]; Well no.=2189) of 98.1% and a remaining activity at 3.75 µM ([2]; Well no.=2189) of 96.3%.
In the case of Cc1ccc(NC2=CC(=O)c3sc(C)nc3C2=O)cc1 [Ryuvidine - 2-Methyl-5-[(4-methylphenyl)amino]-4,7-benzothiazoledione], the remaining activity at 1.25 µM ([1]; Well no.=2584) is reported as 86.3% and the remaining activity at 3.75 µM ([2]; Well no.=2584) is reported as 85%.
COc1ccccc1N1CCN(CCCCN2C(=O)c3ccccc3C2=O)CC1 [NAN-190 (hydrobromide)] showed a remaining activity at 1.25 µM ([1]; Well no.=7191) of 98.5% and a remaining activity at 3.75 µM ([2]; Well no.=7191) of 94.2%.
C[C@@H]1O[C@@H]1P(=O)(O)O [Phosphomycin disodium] was tested, and the remaining activity at 1.25 µM ([1]; Well no.=1148) was 96.5% and the remaining activity at 3.75 µM ([2]; Well no.=1148) was 93.1%.
For O=S(=O)(NCCN1CCNCC1)c1ccc(NC2CCCCC2)c(NCc2ccccc2)c1 [UAMC-3203 hydrochloride], the remaining activity at 1.25 µM ([1]; Well no.=6780) was 105% and the remaining activity at 3.75 µM ([2]; Well no.=6780) was 102%.
With Cc1cn(-c2cc(NC(=O)c3ccc(C)c(Nc4nccc(-c5cccnc5)n4)c3)cc(C(F)(F)F)c2)cn1 [Nilotinib] the remaining activity at 1.25 µM ([1]; Well no.=2793) was 111% and the remaining activity at 3.75 µM ([2]; Well no.=2793) was 107%.
C[C@H]1C[C@H]2[C@@H]3CCC4=CC(=O)C=C[C@]4(C)[C@H]3C(=O)C[C@]2(C)[C@@]1(O)C(=O)CO [Meprednisone] was tested, and the remaining activity at 1.25 µM ([1]; Well no.=6509) was 101% and the remaining activity at 3.75 µM ([2]; Well no.=6509) was 102%.
In the case of Cc1ccc(C(=O)C(C)CN2CCCCC2)cc1 (stereo not shown) [Tolperisone (hydrochloride)], the remaining activity at 1.25 µM ([1]; Well no.=7498) is reported as 99% and the remaining activity at 3.75 µM ([2]; Well no.=7498) is reported as 100%.
In the case of C[C@@]12C=Cc3occc3[C@H]1CC[C@]13CC(=O)[C@H](CC[C@H]12)C3 [16-Oxokahweol], the remaining activity at 1.25 µM ([1]; Well no.=3693) is reported as 94.8% and the remaining activity at 3.75 µM ([2]; Well no.=3693) is reported as 99%.
C[C@H](N)C(=O)O [L-Alanine] showed a remaining activity at 1.25 µM ([1]; Well no.=7749) of 95.2% and a remaining activity at 3.75 µM ([2]; Well no.=7749) of 97.6%.
For O=C(Oc1cc(S(=O)(=O)c2ccccc2)ccc1[N+](=O)[O-])c1ccc(Cl)cc1 [BTB06584], the remaining activity at 1.25 µM ([1]; Well no.=5965) was 102% and the remaining activity at 3.75 µM ([2]; Well no.=5965) was 102%.
C[C@@H]([C@@H](O)c1ccc(O)cc1)N1CCC(O)(c2ccccc2)CC1 [CP-101606 mesylate] gave a remaining activity at 1.25 µM ([1]; Well no.=5955) of 98.1% and a remaining activity at 3.75 µM ([2]; Well no.=5955) of 98.9%.
Nc1nc2c(ncn2[C@@H]2O[C@H](CO)[C@@H](O)[C@H]2O)c(=O)[nH]1 [Guanosine] showed a remaining activity at 1.25 µM ([1]; Well no.=5248) of 96.5%, a remaining activity at 1.25 µM ([1]; Well no.=6833) of 97.7% and a remaining activity at 1.25 µM ([1]; Well no.=7708) of 94.4%. The remaining activity at 3.75 µM ([2]; Well no.=5248) was 98%, the remaining activity at 3.75 µM ([2]; Well no.=6833) was 99.5% and the remaining activity at 3.75 µM ([2]; Well no.=7708) was 91.8%.
OCCN1CCN(CC/C=C2/c3ccccc3Sc3ccc(C(F)(F)F)cc32)CC1 [cis-(Z)-Flupenthixol dihydrochloride] showed a remaining activity at 1.25 µM ([1]; Well no.=617) of 99.6% and a remaining activity at 3.75 µM ([2]; Well no.=617) of 98.7%.
CC(C)[C@H]1CC[C@H](C(=O)N[C@H](Cc2ccccc2)C(=O)O)CC1 [Nateglinide] gave a remaining activity at 1.25 µM ([1]; Well no.=1546) of 103%, a remaining activity at 1.25 µM ([1]; Well no.=7504) of 102% and a remaining activity at 3.75 µM ([2]; Well no.=1546) of 103%. The remaining activity at 3.75 µM ([2]; Well no.=7504) was 102%.
In the case of O[C@H]1CCN2Cc3ccccc3N=C12 [Vasicine], the remaining activity at 1.25 µM ([1]; Well no.=3406) is reported as 97.8% and the remaining activity at 3.75 µM ([2]; Well no.=3406) is reported as 94.4%.
In the case of CC(CCc1ccccc1)NCC(O)c1ccc(O)c(C(N)=O)c1 (stereo not shown) [Labetalol (hydrochloride)], the remaining activity at 1.25 µM ([1]; Well no.=8287) is reported as 99.3% and the remaining activity at 3.75 µM ([2]; Well no.=8287) is reported as 94.7%.
Work on CNc1ncnc2c1ncn2[C@H]1C[C@H](OP(=O)(O)O)[C@@H](COP(=O)(O)O)O1 [MRS 2179] yielded a remaining activity at 1.25 µM ([1]; Well no.=926) of 98.6% and a remaining activity at 3.75 µM ([2]; Well no.=926) of 103%.
Compound Cc1cnc(NC(=O)c2cc(S(=O)(=O)N(C)C)ccc2N2CCCC2)s1 [NGI-1] has a remaining activity at 1.25 µM ([1]; Well no.=7684) of 103% and a remaining activity at 3.75 µM ([2]; Well no.=7684) of 103%.
For CN1C[C@H](CO)C[C@@H]2c3cccc4[nH]cc(c34)C[C@H]21 [9,10-Dihydrolysergol], the remaining activity at 1.25 µM ([1]; Well no.=3468) was 108% and the remaining activity at 3.75 µM ([2]; Well no.=3468) was 109%.
For CCCCCCCC/C=C\CCCCCCCC(=O)NCc1ccc(O)c(OC)c1 [Olvanil], the remaining activity at 1.25 µM ([1]; Well no.=5771) was 94.2% and the remaining activity at 3.75 µM ([2]; Well no.=5771) was 90%.
